The half-life is the time needed for the level to fall by half in the phase considered. A lower half-life goes with fast loss. One may read the IC50 as the concentration that inhibits the measured activity by half. A high value points to weaker potency.

The record followed here is ChEMBL document CHEMBL4400508, “Targeted Endocrine Therapy: Design, Synthesis, and Proof-of-Principle of 17β-Hydroxysteroid Dehydrogenase Type 2 Inhibitors in Bone Fracture Healing” (J Med Chem, 2019).

Each structure is given as a SMILES string. Bounds are passed on as bounds.

For series [1], the target named is T1, AhR (aryl hydrocarbon receptor); CYP1 induction (Homo sapiens, UniProt P35869).
T1 sequence (P35869 whole entry): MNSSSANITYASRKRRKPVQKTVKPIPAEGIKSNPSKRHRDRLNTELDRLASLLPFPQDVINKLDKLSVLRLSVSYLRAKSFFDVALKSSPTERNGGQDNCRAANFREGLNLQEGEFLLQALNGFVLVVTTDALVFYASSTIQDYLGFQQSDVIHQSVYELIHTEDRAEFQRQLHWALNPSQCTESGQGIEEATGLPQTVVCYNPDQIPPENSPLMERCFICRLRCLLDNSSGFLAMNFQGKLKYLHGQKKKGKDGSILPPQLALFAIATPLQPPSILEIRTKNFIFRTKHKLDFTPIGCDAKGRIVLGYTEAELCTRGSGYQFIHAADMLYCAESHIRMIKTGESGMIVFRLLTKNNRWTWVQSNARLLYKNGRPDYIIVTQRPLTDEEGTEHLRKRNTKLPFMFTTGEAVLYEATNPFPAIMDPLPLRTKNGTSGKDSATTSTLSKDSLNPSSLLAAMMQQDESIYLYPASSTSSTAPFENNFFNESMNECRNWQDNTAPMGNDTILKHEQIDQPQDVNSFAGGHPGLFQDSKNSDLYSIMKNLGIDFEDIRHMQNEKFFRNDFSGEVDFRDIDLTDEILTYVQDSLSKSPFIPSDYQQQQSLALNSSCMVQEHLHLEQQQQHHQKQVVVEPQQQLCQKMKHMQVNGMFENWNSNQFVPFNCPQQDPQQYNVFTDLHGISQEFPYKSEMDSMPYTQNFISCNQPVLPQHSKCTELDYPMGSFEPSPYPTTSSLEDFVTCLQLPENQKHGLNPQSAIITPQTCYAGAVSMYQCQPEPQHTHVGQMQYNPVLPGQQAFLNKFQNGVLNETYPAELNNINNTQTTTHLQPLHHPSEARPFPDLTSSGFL
The series is described as follows: in vitro. To be noted: hepg2.
Description: Agonist activity at AhR in human HepG2 assessed as induction of CYP1 at 3.16 uM relative to control

Another series in a line: in vitro. To be noted: human, s9.
The target in series [2] is T2, constitutive androstane receptor (NR1I3); CYP2 induction (Homo sapiens, UniProt Q14994).
T2 sequence (Q14994 whole entry): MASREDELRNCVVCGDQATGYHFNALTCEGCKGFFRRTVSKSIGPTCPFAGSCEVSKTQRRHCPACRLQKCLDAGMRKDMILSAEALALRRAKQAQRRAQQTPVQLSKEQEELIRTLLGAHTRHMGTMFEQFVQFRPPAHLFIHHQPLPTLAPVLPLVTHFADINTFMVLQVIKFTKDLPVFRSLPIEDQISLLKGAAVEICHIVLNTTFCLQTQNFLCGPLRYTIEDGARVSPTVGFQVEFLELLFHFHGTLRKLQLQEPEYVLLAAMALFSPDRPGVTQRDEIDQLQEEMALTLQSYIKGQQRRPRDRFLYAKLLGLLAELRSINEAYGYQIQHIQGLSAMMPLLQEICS
The series is described as follows: in vitro.
Description: Agonist activity at recombinant human constitutive androstane receptor assessed as induction of CYP2 at 3.16 uM relative to control

For series [3], the target named is T3, PXR (NR1I2); CYP3 induction (Homo sapiens, UniProt O75469).
T3 sequence (O75469 whole entry): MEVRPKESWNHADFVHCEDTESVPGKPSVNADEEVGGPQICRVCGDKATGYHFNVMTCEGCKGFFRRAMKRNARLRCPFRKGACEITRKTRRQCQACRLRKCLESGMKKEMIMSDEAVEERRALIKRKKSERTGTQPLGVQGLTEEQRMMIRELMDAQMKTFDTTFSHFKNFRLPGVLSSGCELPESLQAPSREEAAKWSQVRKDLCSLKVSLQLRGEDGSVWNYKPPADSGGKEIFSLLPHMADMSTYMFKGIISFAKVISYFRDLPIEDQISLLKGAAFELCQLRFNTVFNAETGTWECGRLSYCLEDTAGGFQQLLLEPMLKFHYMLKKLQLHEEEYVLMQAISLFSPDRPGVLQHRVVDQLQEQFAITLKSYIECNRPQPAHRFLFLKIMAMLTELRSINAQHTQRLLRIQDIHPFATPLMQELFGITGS
The series is described as follows: in vitro.
Description: Agonist activity at recombinant human PXR assessed as induction of CYP3 at 3.16 uM after 60 mins relative to control

For series [4], the target named is T4, 17-beta-hydroxysteroid dehydrogenase type 1 (Mus musculus, UniProt P51656).
T4 sequence (P51656 whole entry): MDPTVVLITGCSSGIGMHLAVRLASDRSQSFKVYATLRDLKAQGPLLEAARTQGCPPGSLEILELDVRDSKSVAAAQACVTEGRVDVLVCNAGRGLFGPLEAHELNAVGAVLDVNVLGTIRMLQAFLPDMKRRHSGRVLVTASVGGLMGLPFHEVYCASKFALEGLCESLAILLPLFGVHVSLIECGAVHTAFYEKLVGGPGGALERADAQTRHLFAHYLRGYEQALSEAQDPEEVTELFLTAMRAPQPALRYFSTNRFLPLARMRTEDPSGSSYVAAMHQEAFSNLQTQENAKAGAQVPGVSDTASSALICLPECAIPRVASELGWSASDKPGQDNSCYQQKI
The class given is cell-based, HEK293.
Description: Inhibition of recombinant mouse 17beta-HSD1 expressed in HEK293 cells using [3H]-E1 as substrate in presence of NAD+ by radio-HPLC analysis

Series [5] concerns the target T5, Estradiol 17-beta-dehydrogenase 2 (Mus musculus, UniProt P51658).
T5 sequence (P51658 whole entry): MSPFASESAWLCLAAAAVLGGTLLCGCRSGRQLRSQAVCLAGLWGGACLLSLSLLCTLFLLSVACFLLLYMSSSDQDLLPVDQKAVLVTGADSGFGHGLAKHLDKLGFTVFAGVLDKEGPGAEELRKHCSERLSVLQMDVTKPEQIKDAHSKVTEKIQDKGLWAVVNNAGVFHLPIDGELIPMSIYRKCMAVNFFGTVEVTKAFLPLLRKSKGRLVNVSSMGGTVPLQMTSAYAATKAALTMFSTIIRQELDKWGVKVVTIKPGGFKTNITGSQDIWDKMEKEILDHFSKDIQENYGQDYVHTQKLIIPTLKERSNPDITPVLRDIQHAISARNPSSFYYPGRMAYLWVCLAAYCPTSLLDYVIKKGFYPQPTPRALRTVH
The series can be described thus: biochemical. The class given is tissue-based, Liver.
Description: Inhibition of mouse liver homogenate 17beta-HSD2 using [3H]-E2 as substrate in presence of NAD+ by radio-HPLC analysis

Series [6] deals with T6, 17-beta-hydroxysteroid dehydrogenase type 1 (Homo sapiens, UniProt P14061).
T6 sequence (P14061 whole entry): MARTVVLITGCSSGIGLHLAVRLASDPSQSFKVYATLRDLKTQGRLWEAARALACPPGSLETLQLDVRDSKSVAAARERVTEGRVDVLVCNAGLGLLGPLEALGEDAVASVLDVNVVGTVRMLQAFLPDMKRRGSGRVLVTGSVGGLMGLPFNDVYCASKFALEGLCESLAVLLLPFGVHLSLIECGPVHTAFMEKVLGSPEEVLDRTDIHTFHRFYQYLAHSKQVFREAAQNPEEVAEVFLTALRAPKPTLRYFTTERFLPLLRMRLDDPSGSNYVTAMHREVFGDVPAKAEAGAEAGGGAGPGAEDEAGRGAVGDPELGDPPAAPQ
Description: Inhibition of human placental cytosolic fraction 17beta-HSD1 using [3H]-E1 as substrate in presence of NAD+ by radio-HPLC analysis

Regarding `O=C(c1ccc(-c2cccc(NS(=O)(=O)c3ccccc3OC(F)(F)F)c2)s1)c1cc(F)c(F)c(O)c1F`, the activity at 3.16 µM in series [1] and in series [2] was less than 5% throughout. For the same molecule, the half-life in the series “in vitro” came to 60 min. This molecule yielded an activity at 1 h, 3.16 µM in series [3] of less than 5%. The IC50 in series [4] came out at 1760 nM.
For `O=C(c1ccc(-c2cccc(NS(=O)(=O)c3ccc(F)cc3)c2)s1)c1cc(F)c(F)c(O)c1F`, the half-life in the series “in vitro” came out at 32 min. In series [5], this molecule yielded an IC50 of 27.3 nM.
In the case of `O=C(c1ccc(-c2cccc(NS(=O)(=O)c3ccccc3)c2)s1)c1c(Cl)ccc(O)c1F`, the half-maximal inhibitory concentration (IC50) in series [6] is 1.7 nM. That is a single-digit nanomolar value.
As to `O=C(c1ccc(-c2cccc(NS(=O)(=O)c3cccc(Cl)c3)c2)s1)c1cc(F)c(F)c(O)c1F`, the half-life in “in vitro” came out at 42 min. The IC50 is 5.6 nM in series [5] and 0.8 nM in series [6].
For `Cc1cccc(S(=O)(=O)Nc2cccc(-c3ccc(C(=O)c4cc(F)c(F)c(O)c4F)s3)c2)c1`, in that order: 28 min, 7.9 nM and 0.1 nM.
For `Cc1ccc(S(=O)(=O)Nc2cccc(-c3ccc(C(=O)c4cc(F)c(F)c(O)c4F)s3)c2)cc1`, in that order: 32 min, 9.9 nM and 0.1 nM.
In the case of `O=C(c1ccc(-c2cccc(NS(=O)(=O)c3ccccc3)c2)s1)c1cccc(O)c1Cl`, in the series “in vitro”, the half-life was less than 5 min. In addition, the figures for the IC50 in series [5] and in series [6] were 2.7 nM and 20.3 nM, respectively.
With `O=C(c1ccc(-c2cccc(NS(=O)(=O)c3ccccc3)c2)s1)c1c(F)ccc(O)c1F`, the values for the IC50 in series [5] and in series [6] were 30.5 nM and 1.4 nM, respectively.
As to `O=C(c1ccc(Cl)c(O)c1)c1ccc(-c2cccc(NS(=O)(=O)c3ccccc3)c2)s1`, the IC50 in series [6] amounted to 8.2 nM.
In turn, `O=C(c1ccc(-c2cccc(NS(=O)(=O)c3ccccc3)c2)s1)c1c(F)ccc(O)c1Cl` showed a half-life in the series “in vitro” of less than 5 min. The IC50 in series [5] is 2.7 nM; in series [6], 15.6 nM.
For `O=C(c1ccc(-c2cccc(NS(=O)(=O)c3ccc(Cl)cc3)c2)s1)c1cc(F)c(F)c(O)c1F` the same measures were 40 min, 6.2 nM and 0.7 nM.
`O=C(c1ccc(-c2cccc(NS(=O)(=O)c3ccccc3C(F)(F)F)c2)s1)c1cc(F)c(F)c(O)c1F` displayed a half-life in the series “in vitro” of 51 min.
In series [6], `Cc1c(O)cccc1C(=O)c1ccc(-c2cccc(NS(=O)(=O)c3ccccc3)c2)s1` registered an IC50 of 306 nM.
